Laboratory results published in article PMC6058667 (Drug Delivery, 2018).

Tests used:
HepG-2 cells = experiment: MTT cytotoxicity assay; type: cell-based; settings: HepG-2 hepatoma cell line, 48 h
Method: The in vitro cytotoxicity of CuB-MMs-CPs was assessed using the MTT assay. HepG-2 cells were seeded onto 96-well plates in 200 μL. DMEM was applied to obtain a concentration of 5000 cells per well and cultured at 37 °C, 5% CO2 for 24 h to allow attachment of cells. […] The percentage of cell viability was calculated on the basis of the optical density values at 490 nm of the sample wells, which contained cells treated with the culture medium.

HepG-2 xenografts = experiment: Antitumor study in nude mice bearing HepG-2 xenografts; type: in vivo; settings: oral, equivalent CuB dose 2 mg/kg, versus saline
Method: For in vivo study, we used a nude mouse as a model for HepG-2 […]. […] All treatments were orally administered on days 1, 3, 5, 7, 9, 11, 13, 15, 17, 19, and 21. The volume of the tumor was measured daily. On day 22, mice were killed and tumors were weighed.

Cucurbitacin B [CuB]
IC50 (HepG-2 cells): 0.104 ± 0.0503 µM | Tumor growth (HepG-2 xenografts): slightly slower growth than animals administered with saline
